Test results taken from patent publication US20260207602A1, “EGFR INHIBITORS” (Blueprint Medicines Corporation, priority 2022, published 2026).
pIC50: −log10 of the molar value.

What was measured:
EGFR L858R = target: T1, EGFR L858R (Homo sapiens, UniProt P00533, L858R); assay: Biochemical EGFR inhibition assay (Caliper mobility shift), EGFR L858R; details: biochemical Caliper mobility shift assay, EGFR L858R enzyme; read-out: Enz EGFR L858R IC50
T1 construct: purchased SignalChem E10-122BG
Method in brief: (§1)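 Apparent IC50 from Caliper separation of phospho-peptide from substrate. Conditions: 2.5 µM 5-FAM peptide, 1.0 mM ATP or ATP Km, pH 7.5 HEPES buffer, room temperature, 10–20% conversion, EDTA stop.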

EGFR (d746-750) = target: T2, EGFR (d746-750) (Homo sapiens, UniProt P00533, DEL746-750); assay: Biochemical EGFR inhibition assay (Caliper mobility shift), EGFR (d746-750); details: biochemical Caliper mobility shift assay, EGFR Exon 19-del enzyme; read-out: Enz EGFR Exon 19-del IC50
T2 construct: purchased SignalChem E10-122JG
Method in brief: as §1

[1] = target: intracellular phosphorylation of EGFR (Tyr1068) in PC-9 cells (Homo sapiens, UniProt P00533, DEL746-750); assay: PC-9 pEGFR AlphaLISA assay; type: cell-based; details: 4 hours incubation, read-out: Phos EGFR PC9 IC50
Method in brief: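 PC-9 cells (EGFR del746-750) in phenol-free DMEM/10% FBS, adhered overnight, then exposed to 10-point 4-fold compound dilutions for 4 h at 37 °C. Lysates assayed for pEGFR Tyr1068 by AlphaLISA SureFire Ultra; IC50 from percent pEGFR inhibition vs log concentration.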

T1 sequence (P00533 25-1210 L858R): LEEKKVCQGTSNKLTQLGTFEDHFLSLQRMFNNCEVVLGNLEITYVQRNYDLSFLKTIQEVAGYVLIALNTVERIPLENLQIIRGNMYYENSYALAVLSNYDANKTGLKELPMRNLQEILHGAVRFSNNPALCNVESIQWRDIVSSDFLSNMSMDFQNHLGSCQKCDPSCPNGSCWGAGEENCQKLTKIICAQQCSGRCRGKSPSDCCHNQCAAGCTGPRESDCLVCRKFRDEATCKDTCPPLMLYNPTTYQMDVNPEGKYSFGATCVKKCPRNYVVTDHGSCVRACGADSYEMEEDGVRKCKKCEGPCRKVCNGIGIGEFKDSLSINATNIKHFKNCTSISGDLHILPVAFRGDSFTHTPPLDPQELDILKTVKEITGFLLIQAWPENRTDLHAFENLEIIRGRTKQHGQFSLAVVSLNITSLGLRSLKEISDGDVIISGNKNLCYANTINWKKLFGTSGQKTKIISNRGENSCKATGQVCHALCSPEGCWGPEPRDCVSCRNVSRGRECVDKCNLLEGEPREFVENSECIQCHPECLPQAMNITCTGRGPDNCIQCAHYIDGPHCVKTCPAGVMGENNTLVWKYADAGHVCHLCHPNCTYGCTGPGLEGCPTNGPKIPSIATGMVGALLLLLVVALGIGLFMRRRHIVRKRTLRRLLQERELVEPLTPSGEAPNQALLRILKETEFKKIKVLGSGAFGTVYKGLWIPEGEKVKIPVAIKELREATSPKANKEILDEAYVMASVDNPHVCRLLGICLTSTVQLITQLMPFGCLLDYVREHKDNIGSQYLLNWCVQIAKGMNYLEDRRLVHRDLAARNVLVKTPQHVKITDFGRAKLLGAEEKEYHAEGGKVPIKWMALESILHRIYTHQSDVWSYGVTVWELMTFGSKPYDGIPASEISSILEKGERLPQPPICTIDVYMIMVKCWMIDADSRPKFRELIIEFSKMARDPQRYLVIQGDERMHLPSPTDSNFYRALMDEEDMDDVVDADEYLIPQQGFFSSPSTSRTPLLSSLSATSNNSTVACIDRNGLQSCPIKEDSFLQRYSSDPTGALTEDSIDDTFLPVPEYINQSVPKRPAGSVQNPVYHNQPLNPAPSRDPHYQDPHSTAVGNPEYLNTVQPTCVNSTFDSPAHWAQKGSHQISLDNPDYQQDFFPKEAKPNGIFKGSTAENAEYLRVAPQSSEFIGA
Sequence of intracellular phosphorylation of EGFR (Tyr1068) in PC-9 cells (P00533 with tags, fused parts or gaps DEL746-750): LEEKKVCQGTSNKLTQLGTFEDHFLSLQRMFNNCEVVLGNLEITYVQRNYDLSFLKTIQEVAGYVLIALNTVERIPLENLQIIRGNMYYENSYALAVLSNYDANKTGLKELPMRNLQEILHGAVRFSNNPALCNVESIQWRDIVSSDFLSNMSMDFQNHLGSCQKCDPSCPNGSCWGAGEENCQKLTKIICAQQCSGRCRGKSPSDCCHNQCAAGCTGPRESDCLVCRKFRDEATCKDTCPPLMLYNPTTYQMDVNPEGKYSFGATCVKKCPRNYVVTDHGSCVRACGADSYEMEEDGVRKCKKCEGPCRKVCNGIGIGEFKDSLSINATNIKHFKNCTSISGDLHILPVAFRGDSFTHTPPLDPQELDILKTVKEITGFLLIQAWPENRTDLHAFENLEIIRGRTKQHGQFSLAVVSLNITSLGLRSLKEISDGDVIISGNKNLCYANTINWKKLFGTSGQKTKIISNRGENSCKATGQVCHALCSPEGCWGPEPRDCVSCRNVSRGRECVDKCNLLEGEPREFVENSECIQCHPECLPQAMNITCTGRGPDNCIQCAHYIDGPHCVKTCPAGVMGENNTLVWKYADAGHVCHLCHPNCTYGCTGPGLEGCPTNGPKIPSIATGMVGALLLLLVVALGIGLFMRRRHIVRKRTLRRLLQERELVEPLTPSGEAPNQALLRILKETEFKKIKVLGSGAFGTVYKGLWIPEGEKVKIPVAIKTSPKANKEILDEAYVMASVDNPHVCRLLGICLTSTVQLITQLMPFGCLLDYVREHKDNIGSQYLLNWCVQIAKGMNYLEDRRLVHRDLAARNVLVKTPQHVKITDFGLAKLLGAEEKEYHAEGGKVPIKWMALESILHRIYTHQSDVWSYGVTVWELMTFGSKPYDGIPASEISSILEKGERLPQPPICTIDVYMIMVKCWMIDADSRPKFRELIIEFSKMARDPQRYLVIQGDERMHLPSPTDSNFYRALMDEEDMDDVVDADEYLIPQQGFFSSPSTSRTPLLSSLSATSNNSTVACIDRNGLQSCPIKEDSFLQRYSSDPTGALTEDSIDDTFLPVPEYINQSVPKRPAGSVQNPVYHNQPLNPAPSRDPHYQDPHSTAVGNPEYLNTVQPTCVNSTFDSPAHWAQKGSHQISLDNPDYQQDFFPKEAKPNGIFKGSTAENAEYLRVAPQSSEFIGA
T2 sequence (P00533 with tags, fused parts or gaps DEL746-750 limits assumed): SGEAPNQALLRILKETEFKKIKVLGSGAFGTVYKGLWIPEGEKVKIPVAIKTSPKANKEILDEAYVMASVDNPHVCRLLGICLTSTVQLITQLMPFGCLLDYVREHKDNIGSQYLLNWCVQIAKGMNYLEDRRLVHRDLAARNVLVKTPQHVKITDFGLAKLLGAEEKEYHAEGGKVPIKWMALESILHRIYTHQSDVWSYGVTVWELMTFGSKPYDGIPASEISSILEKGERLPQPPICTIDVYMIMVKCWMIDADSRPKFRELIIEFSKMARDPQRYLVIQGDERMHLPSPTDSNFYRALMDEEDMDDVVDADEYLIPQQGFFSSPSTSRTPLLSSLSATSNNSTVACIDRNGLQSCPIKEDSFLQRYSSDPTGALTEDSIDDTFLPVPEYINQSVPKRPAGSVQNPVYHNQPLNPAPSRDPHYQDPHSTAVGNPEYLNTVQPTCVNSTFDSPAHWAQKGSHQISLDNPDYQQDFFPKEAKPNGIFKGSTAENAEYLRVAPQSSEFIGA

SMILES | pIC50 (EGFR L858R) | pIC50 (EGFR (d746-750)) | pIC50 [1]
CC(C)N1CCC(Oc2cc(-c3cnn(C)c3)cc3ncnc(Nc4ccc5ncsc5c4)c23)C1=O (racemic) [Example 62, (rac)-3-((4-(benzo[d]thiazol-6-ylamino)-7-(1-methyl-1H-pyrazol-4-yl)quinazolin-5-yl)oxy)-1-isopropylpyrrolidin-2-one] | ≥ 8.00 | ≥ 8.00 | ≥ 8.00
COc1nn(C)cc1-c1cc(O[C@H]2COC[C@@H]2O)c2c(Nc3ccc4ncsc4c3)ncnc2c1 (single isomer, unassigned) [Example A48] | ≥ 8.00 | ≥ 8.00 | ≥ 8.00
Cc1ccn(-c2cc(OC3CCOCC3)c3c(Nc4ccc5ncsc5c4)ncnc3c2)n1 [Example 136, N-(7-(3-methyl-1H-pyrazol-1-yl)-5-((tetrahydro-2H-pyran-4-yl)oxy)quinazolin-4-yl)benzo[d]thiazol-6-amine] | ≥ 8.00 | ≥ 8.00 | 7.30 to 8.00
CN1CC[C@@H](Oc2cc(-c3cnn(C)c3)cc3ncnc(Nc4ccc5ncsc5c4)c23)C1 [Example 35, (R)-N-(7-(1-methyl-1H-pyrazol-4-yl)-5-((1-methylpyrrolidin-3-yl)oxy)quinazolin-4-yl)benzo[d]thiazol-6-amine] | 7.30 to 8.00 | ≥ 8.00 | 7.30 to 8.00
C[C@@H](Oc1cc(-c2cnn(C)c2)cc2ncnc(Nc3ccc4ncsc4c3)c12)C1CC1 [Example 65, (R)-N-(5-(1-cyclopropylethoxy)-7-(1-methyl-1H-pyrazol-4-yl)quinazolin-4-yl)benzo[d]thiazol-6-amine] | ≥ 8.00 | ≥ 8.00 | ≥ 8.00
CN(C)C1CCC1Oc1cc(-c2cnn(C)c2)cc2ncnc(Nc3ccc4ncsc4c3)c12 [Example 153, N-(5-((1S,2S)-2-(dimethylamino)cyclobutoxy)-7-(1-methyl-1H-pyrazol-4-yl)quinazolin-4-yl)benzo[d]thiazol-6-amine OR N-(5-((1R,2R)-2-(dimethylamino)cyclobutoxy)-7-(1-methyl-1H-pyrazol-4-yl)quinazolin-4-yl)benzo[d]thiazol-6-amine] | ≥ 8.00 | ≥ 8.00 | 7.30 to 8.00
C[C@@H](Oc1cc(N2CC3CC(C2)O3)cc2ncnc(Nc3ccc4ncsc4c3F)c12)C1COC1 [Example 180, N-(7-(6-oxa-3-azabicyclo[3.1.1]heptan-3-yl)-5-((R)-1-(oxetan-3-yl)ethoxy)quinazolin-4-yl)-7-fluorobenzo[d]thiazol-6-amine] | ≥ 8.00 | ≥ 8.00 | ≥ 8.00
Cn1cc(-c2cc(O[C@@H]3CNC[C@@H]3F)c3c(Nc4ccc5ncsc5c4)ncnc3c2)cn1 (racemic) [Example 379, N-(5-(((3R,4S)-4-fluoropyrrolidin-3-yl)oxy)-7-(1-methyl-1H-pyrazol-4-yl)quinazolin-4-yl)benzo[d]thiazol-6-amine] | 7.30 to 8.00 | ≥ 8.00 | < 7.30
Cn1cc(-c2cc(O[C@H]3CCOC[C@@H]3F)c3c(Nc4ccc5ncsc5c4)ncnc3c2)cn1 (single isomer, unassigned) [Example 45] | ≥ 8.00 | ≥ 8.00 | 7.30 to 8.00
Cn1cc(-c2cc(OC3(C)CC3)c3c(Nc4ccc5ncsc5c4)ncnc3c2)cn1 [Example 57, N-(7-(1-methyl-1H-pyrazol-4-yl)-5-(1-methylcyclopropoxy)quinazolin-4-yl)benzo[d]thiazol-6-amine] | ≥ 8.00 | ≥ 8.00 | ≥ 8.00
Cn1cc(-c2cc(OCC3(C)COC3)c3c(Nc4ccc5ncsc5c4)ncnc3c2)cn1 [Example 49, N-(7-(1-methyl-1H-pyrazol-4-yl)-5-((3-methyloxetan-3-yl)methoxy)quinazolin-4-yl)benzo[d]thiazol-6-amine] | ≥ 8.00 | ≥ 8.00 | 7.30 to 8.00
CN1CC[C@H](Oc2cc(-c3cnn(C)c3)cc3ncnc(Nc4ccc5ncsc5c4F)c23)C1=O (single isomer, unassigned) [Example 72] | ≥ 8.00 | ≥ 8.00 | ≥ 8.00
CO[C@@H]1CCN(C)C[C@H]1Oc1cc(-c2cnn(C)c2)cc2ncnc(Nc3ccc4ncsc4c3)c12 (single isomer, unassigned) [Example A39] | 7.30 to 8.00 | ≥ 8.00 | < 7.30

Further lines, results first:

pIC50 (EGFR L858R) | pIC50 (EGFR (d746-750)) | pIC50 [1] | SMILES
≥ 8.00 | ≥ 8.00 | ≥ 8.00 | Cn1cc(-c2cc(OCC(=O)N3CCCCC3)c3c(Nc4ccc5ncsc5c4)ncnc3c2)cn1 [Example 272, 2-((4-(benzo[d]thiazol-6-ylamino)-7-(1-methyl-1H-pyrazol-4-yl)quinazolin-5-yl)oxy)-1-(piperidin-1-yl)ethan-1-one]
≥ 8.00 | ≥ 8.00 | ≥ 8.00 | COc1nn(C)cc1-c1cc(O[C@@H]2CCNC[C@H]2F)c2c(Nc3ccc4ncsc4c3F)ncnc2c1 [Example 350, 7-fluoro-N-(5-(((3R,4R)-3-fluoropiperidin-4-yl)oxy)-7-(3-methoxy-1-methyl-1H-pyrazol-4-yl)quinazolin-4-yl)benzo[d]thiazol-6-amine]
≥ 8.00 | ≥ 8.00 | 7.30 to 8.00 | C[C@@H](Oc1cc(N2CCN(C)[C@@H](C)C2)cc2ncnc(Nc3ccc4ncsc4c3F)c12)C1COC1 (single isomer, unassigned) [Example 98]
< 7.30 | 7.30 to 8.00 | < 7.30 | CN(C)C[C@H](Oc1cc(-c2cnn(C)c2)cc2ncnc(Nc3ccc4ncsc4c3)c12)C(F)(F)F (single isomer, unassigned) [Example 179]
≥ 8.00 | ≥ 8.00 | ≥ 8.00 | COC[C@@H](C)Oc1cc(-n2cc([C@H](C)O)cn2)cc2ncnc(Nc3ccc4ncsc4c3F)c12 [Example A20, (S)-1-(1-(4-((7-fluorobenzo[d]thiazol-6-yl)amino)-5-(((R)-1-methoxypropan-2-yl)oxy)quinazolin-7-yl)-1H-pyrazol-4-yl)ethan-1-ol, OR (R)-1-(1-(4-((7-fluorobenzo[d]thiazol-6-yl)amino)-5-(((R)-1-methoxypropan-2-yl)oxy)quinazolin-7-yl)-1H-pyrazol-4-yl)ethan-1-ol]
7.30 to 8.00 | ≥ 8.00 | 7.30 to 8.00 | CN1CCN(CCOc2cc(OC3CCOCC3)c3c(Nc4ccc5ncsc5c4)ncnc3c2)CC1 [Example A16, N-(7-(2-(4-methylpiperazin-1-yl)ethoxy)-5-((tetrahydro-2H-pyran-4-yl)oxy)quinazolin-4-yl)benzo[d]thiazol-6-amine]
≥ 8.00 | ≥ 8.00 | 7.30 to 8.00 | C[C@@H]1CN(C)CCN1c1cc(O[C@H](C)C2COC2)c2c(Nc3ccc4ncsc4c3F)ncnc2c1 (single isomer, unassigned) [Example 106, N-(7-((R)-2,4-dimethylpiperazin-1-yl)-5-((R)-1-(oxetan-3-yl)ethoxy)quinazolin-4-yl)-7-fluorobenzo[d]thiazol-6-amine or N-(7-((R)-2,4-dimethylpiperazin-1-yl)-5-((S)-1-(oxetan-3-yl)ethoxy)quinazolin-4-yl)-7-fluorobenzo[d]thiazol-6-amine]
≥ 8.00 | ≥ 8.00 | ≥ 8.00 | Cn1cc(-c2cc(OCC3COC3)c3c(Nc4ccc5ncsc5c4F)ncnc3c2)cn1 [Example 13, 7-fluoro-N-(7-(1-methyl-1H-pyrazol-4-yl)-5-(oxetan-3-ylmethoxy)quinazolin-4-yl)benzo[d]thiazol-6-amine]
≥ 8.00 | ≥ 8.00 | 7.30 to 8.00 | CN1CCC[C@H](Oc2cc(-c3cn(C)n(C(F)F)c3=O)cc3ncnc(Nc4ccc5ncsc5c4)c23)C1 [Example 249, (S)-4-(4-(benzo[d]thiazol-6-ylamino)-5-((1-methylpiperidin-3-yl)oxy)quinazolin-7-yl)-2-(difluoromethyl)-1-methyl-1,2-dihydro-3H-pyrazol-3-one]
≥ 8.00 | ≥ 8.00 | 7.30 to 8.00 | CN1CCC(COc2cc(-c3cnn(C)c3)cc3ncnc(Nc4ccc5ncsc5c4)c23)C1=O (stereo not drawn) [Example 61, 3-(((4-(benzo[d]thiazol-6-ylamino)-7-(1-methyl-1H-pyrazol-4-yl)quinazolin-5-yl)oxy)methyl)-1-methylpyrrolidin-2-one]
≥ 8.00 | ≥ 8.00 | 7.30 to 8.00 | CN1CC[C@H](Oc2cc(-c3cnn(C)c3)cc3ncnc(Nc4ccc5ncsc5c4)c23)C[C@H]1CO [Example A07, ((2S,4S)-4-((4-(benzo[d]thiazol-6-ylamino)-7-(1-methyl-1H-pyrazol-4-yl)quinazolin-5-yl)oxy)-1-methylpiperidin-2-yl)methanol]
≥ 8.00 | ≥ 8.00 | 7.30 to 8.00 | CN1CCC[C@@H]1COc1cc(-c2cnn(C)c2)cc2ncnc(Nc3ccc4ncsc4c3)c12 [Example 33, (R)-N-(7-(1-methyl-1H-pyrazol-4-yl)-5-((1-methylpyrrolidin-2-yl)methoxy)quinazolin-4-yl)benzo[d]thiazol-6-amine]
≥ 8.00 | ≥ 8.00 | ≥ 8.00 | Cn1cc(-c2cc(O[C@H]3CC[C@@H](N(C)C)CC3)c3c(Nc4ccc5ncsc5c4)ncnc3c2)cn1 [Example 22, N-(5-(((1s,4s)-4-(dimethylamino)cyclohexyl)oxy)-7-(1-methyl-1H-pyrazol-4-yl)quinazolin-4-yl)benzo[d]thiazol-6-amine]
